# According to US20240132511A1, “TREATMENTS OF PRADER-WILLI SYNDROME” (Neuren Pharmaceuticals Limited, priority 2021, published 2024):
# Tests used:
# [1] = Delivery of cG-2-AllylP into CSF, blood and brain after single oral gavage dose; format: in vivo, male Sprague Dawley rats; details: for Mean Test Article Exposure, Blood / Mean Test Article Exposure, CSF / Mean Test Article Exposure, Brain: rat
# Protocol: In an in vivo study, male Sprague Dawley rats (aged 14 weeks) received a single dose of cG-2-AllylP, either 100 mg/kg or 200 mg/kg by oral gavage. Cerebrospinal fluid (CSF) and whole blood were collected at 1.5 and 4 hours post-dose, and brain tissue was collected at 4 hours post-dose to evaluate cG-2-AllylP exposure.
# Magel2-null mice [2] = assay: Open Field hypoactivity (distance travelled, time spent active); format: in vivo, mouse; set-up: key: **** = p < 0.0001; ns = not significant
# Description: (§1) The mouse locus 7qB4/B5 (syntenic with the Prader-Willi region at chromosome position 15q11-q13 in humans) encompasses the cluster of paternally-expressed imprinted genes Magel2, Ndn, Mkrn3, and Peg12. As maternal imprinting silences the Magel2 allele, only the paternally inherited Magel2 allele is expressed. Heterozygous females were bred with wild-type males (or C57BL/6J inbred males) to maintain the line; as the resulting offspring will have no abnormal phenotype. To obtain “Magel2-null” offspring (both maternal and paternal Magel2 alleles are non-functional), wild-type females are bred with heterozygous males; allowing maternal transmission of the imprinted/silenced wild-type allele and paternal transmission of the Magel2-lacZ (null) allele. Magel2-null mice have disrupted circadian rhythm and metabolism, total activity, food consumption, weight before weaning, and fertility in both sexes, as well as increased adiposity after weaning and altered behavior. Magel2-null mice on this C57BL/6J genetic background recapitulate Prader-Willi syndrome. Because the genetic mutation in the Magel2-null animals is the same as the mutation in human beings, studies in Magel2-null mice are reasonably predictive of effects of compounds in human beings.
# (§2) In vivo experiments were conducted in C57BL/6-Magel2tm1Stw/J (Magel2-null) mice at age P60 and their wild-type littermates during the light phase (littermates that were wild-type for Magel2 were used as controls). Ten mice per treatment group were used for studies 1 and 2, and six mice per group for study 3. In study 1: C57BL/6-Magel2tm1Stw/J (Magel2-null) mice were assessed on behavioral assays. Study 2 tested the efficacy of cG-2-AllylP in treating obesity and insulin levels in Magel2-null mice. Study 3 tested the IGF-1 level in Magel2-null mice. Because human beings have the same genetic abnormality, studies of Magel2-null mice are reasonably predictive of effects of compounds of Formulas I, II, III and IV in human beings with Prader-Willi Syndrome.
# (§3) Testing was performed during the light phase of the circadian cycle, with the order of testing being determined by the principle of conducting the most stressful tests last. Assays were designed to reproduce and expand on the original behavioral characterization of Magel2-null mice. Magel2-null and wild-type control mice were dosed once daily for 6 weeks prior to testing and tested 30 minutes following a dose of cG-2-AllylP (NNZ2591). Study groups and the treatment matrix are described in Table 2 below.
# To evaluate whether cG-2-AllylP is effective to treat the hypoactivity in PWS, Open Field studies were carried out.
# The relative distance travelled or time spent active is shown on the vertical axis, and the mean of each treatment group is shown on the horizontal axis. Wild-type (WT) mice treated with vehicle alone (left column) were considered to travel 100% or to have 100% activity.
# Magel2-null mice [3] = assay: Sniffing test of social interaction; format: in vivo, mouse; set-up: key: **** = p < 0.0001; ns = not significant
# Description: as §1, §2, §3
# People with Prader-Willi Syndrome show deficits in social behavior compared with people without Prader-Willi Syndrome. Two tests were carried out to assess the social behavior deficits of Magel2-null mice.
# The sniffing test of social interaction measures the number of sniffing events.
# Magel2-null mice [4] = assay: Novel Object Recognition (NOR); format: in vivo, mouse; set-up: key: **** = p < 0.0001; ns = not significant
# Description: as §1, §2, §3
# The NOR test is used to evaluate cognition, based on the tendency for mice to spend more time exploring a novel object that a familiar object. Magel2-null mice display a lack of discrimination between known and novel objects.
# Magel2-null mice [5] = assay: Fat mass in female Magel2-null mice; format: in vivo, mouse; set-up: key: **** = p < 0.0001; ns = not significant
# Protocol: as §2, §3
# (§4) Prader-Willi Syndrome is associated with metabolic and hormonal abnormalities in humans. Magel2-null mice recapitulate some of the metabolic and hormonal aspects of humans with Prader-Willi Syndrome. Experiments were conducted to determine if cG-2-AllylP could have a normalizing effect in metabolic and hormonal aspects.
# (§5) Because female Magel2-null mice present a significant increase in body weight compared with their littermate wild-type controls, female Magel2-null mice were used for this study.
# Magel2-null mice [6] = assay: Insulin levels in female Magel2-null mice; format: in vivo, mouse; set-up: key to Insulin, significance: **** = p < 0.0001; ns = not significant
# Protocol: as §2, §3, §4, §5
# Insulin was measured for each group.
# [7] = single oral dose 100 mg/kg, 1.5 h post-dose
# [8] = single oral dose 100 mg/kg, 4 h post-dose
# [9] = single oral dose 200 mg/kg, 1.5 h post-dose
# [10] = single oral dose 200 mg/kg, 4 h post-dose
# [11] = Magel2-null + NNZ2591 (100 mg/kg) vs. Magel2-null + NNZ2591 (200 mg/kg)
# [12] = Magel2-null + Vehicle vs. Magel2-null + NNZ2591 (100 mg/kg)
# [13] = Magel2-null + Vehicle vs. Magel2-null + NNZ2591 (200 mg/kg)
# [14] = WT + NNZ2591 (100 mg/kg) vs. Magel2-null + NNZ2591 (100 mg/kg)
# [15] = WT + NNZ2591 (200 mg/kg) vs. Magel2-null + NNZ2591 (200 mg/kg)
# [16] = WT + Vehicle vs. WT + NNZ2591 (100 mg/kg)
# [17] = WT + Vehicle vs. WT + NNZ2591 (200 mg/kg)
# [18] = Magel2-null + NNZ2591 200 mg/kg
compound,measurement,setting,value
"C=CCC12CCCN1C(=O)CNC2=O [cG-2-AllylP, (8aS)-Allyl-hexahydropyrrolo[1,2-a]pyrazine-1,4-dione]",Concentration in blood versus brain tissue,[1]; 4 hours post-dose,approximately equivalent
same,Dose dependence of concentration,"[1]; blood and CSF at 1.5 hours, blood, CSF and brain at 4 hours, single oral dose 100 vs 200 mg/kg",approximately proportional increase
same,"Mean Test Article Exposure, Blood",[1]; [7],58.5 µg/mL
same,"Mean Test Article Exposure, CSF",[1]; [7],40.4 µg/mL
same,"Mean Test Article Exposure, Blood",[1]; [8],15.6 µg/mL
same,"Mean Test Article Exposure, Brain",[1]; [8],22.6 µg/mL
same,"Mean Test Article Exposure, CSF",[1]; [8],11.0 µg/mL
same,"Mean Test Article Exposure, Blood",[1]; [9],116.0 µg/mL
same,"Mean Test Article Exposure, CSF",[1]; [9],82.2 µg/mL
same,"Mean Test Article Exposure, Blood",[1]; [10],34.2 µg/mL
same,"Mean Test Article Exposure, Brain",[1]; [10],37.0 µg/mL
same,"Mean Test Article Exposure, CSF",[1]; [10],24.7 µg/mL
same,"Open Field (Hypoactivity) - Motility, Sidak's multiple comparisons test, Summary",Magel2-null mice [2]; [11],ns
same,"Open Field (Hypoactivity) - Distance travelled, Sidak's multiple comparison test, Summary",Magel2-null mice [2]; [12],**** (**** = p < 0.0001)
same,"Open Field (Hypoactivity) - Distance travelled, Sidak's multiple comparison test, Summary",Magel2-null mice [2]; [13],**** (**** = p < 0.0001)
same,"Open Field (Hypoactivity) - Motility, Sidak's multiple comparisons test, Summary",Magel2-null mice [2]; [13],**** (**** = p < 0.0001)
same,"Open Field (Hypoactivity) - Motility, Sidak's multiple comparisons test, Summary",Magel2-null mice [2]; Magel2-null + Vehicle vs. WT + NNZ2591 (100 mg/kg),**** (**** = p < 0.0001)
same,"Open Field (Hypoactivity) - Distance travelled, Sidak's multiple comparison test, Summary",Magel2-null mice [2]; [14],ns
same,"Open Field (Hypoactivity) - Motility, Sidak's multiple comparisons test, Summary",Magel2-null mice [2]; [14],ns
same,"Open Field (Hypoactivity) - Distance travelled, Sidak's multiple comparison test, Summary",Magel2-null mice [2]; WT + NNZ2591 (100 mg/kg) vs. Magel2-null + NNZ2591 (200 mg/kg),ns
same,"Open Field (Hypoactivity) - Distance travelled, Sidak's multiple comparison test, Summary",Magel2-null mice [2]; [15],ns
same,"Open Field (Hypoactivity) - Motility, Sidak's multiple comparisons test, Summary",Magel2-null mice [2]; [15],ns
same,"Open Field (Hypoactivity) - Distance travelled, Sidak's multiple comparison test, Summary",Magel2-null mice [2]; [16],ns
same,"Open Field (Hypoactivity) - Motility, Sidak's multiple comparisons test, Summary",Magel2-null mice [2]; [16],ns
same,"Open Field (Hypoactivity) - Distance travelled, Sidak's multiple comparison test, Summary",Magel2-null mice [2]; [17],ns
same,"Open Field (Hypoactivity) - Motility, Sidak's multiple comparisons test, Summary",Magel2-null mice [2]; [17],ns
same,"Social interaction, Sidak's multiple comparisons test, Summary",Magel2-null mice [3]; [11],ns
same,"Social interaction, Sidak's multiple comparisons test, Summary",Magel2-null mice [3]; [12],**** (**** = p < 0.0001)
same,"Social interaction, Sidak's multiple comparisons test, Summary",Magel2-null mice [3]; [13],**** (**** = p < 0.0001)
same,"Social interaction, Sidak's multiple comparisons test, Summary",Magel2-null mice [3]; [14],ns
same,"Social interaction, Sidak's multiple comparisons test, Summary",Magel2-null mice [3]; [15],ns
same,"Social interaction, Sidak's multiple comparisons test, Summary",Magel2-null mice [3]; WT + Vehicle v. WT + NNZ2591 (100 mg/kg),ns
same,"Social interaction, Sidak's multiple comparisons test, Summary",Magel2-null mice [3]; [17],ns
same,"Novel object recognition, Sidak's multiple comparisons test, Summary",Magel2-null mice [4]; [11],ns
same,"Novel object recognition, Sidak's multiple comparisons test, Summary",Magel2-null mice [4]; [13],**** (**** = p < 0.0001)
same,"Novel object recognition, Sidak's multiple comparisons test, Summary",Magel2-null mice [4]; [14],ns
same,"Novel object recognition, Sidak's multiple comparisons test, Summary",Magel2-null mice [4]; [15],ns
same,"Novel object recognition, Sidak's multiple comparisons test, Summary",Magel2-null mice [4]; [16],ns
same,"Novel object recognition, Sidak's multiple comparisons test, Summary",Magel2-null mice [4]; [17],ns
same,"Effect on fat mass, Sidak's multiple comparisons test, Summary",Magel2-null mice [5]; [12],ns
same,"Effect on fat mass, Sidak's multiple comparisons test, Summary",Magel2-null mice [5]; [13],**** (**** = p < 0.0001)
same,"Effect on fat mass, Sidak's multiple comparisons test, Summary",Magel2-null mice [5]; [15],ns
same,"Effect on fat mass, Sidak's multiple comparisons test, Summary",Magel2-null mice [5]; [16],ns
same,"Effect on fat mass, Sidak's multiple comparisons test, Summary",Magel2-null mice [5]; [17],ns
same,Insulin (mean ± SEM),Magel2-null mice [6]; Magel2-null + NNZ2591 100 mg/kg,143 pM
same,Insulin (mean ± SEM),Magel2-null mice [6]; [18],119 pM
same,"Insulin, significance",Magel2-null mice [6]; [18],(ns)
same,Insulin (mean ± SEM),Magel2-null mice [6]; WT + NNZ2591 100 mg/kg,112 pM
same,Insulin (mean ± SEM),Magel2-null mice [6]; WT + NNZ2591 200 mg/kg,115 pM
same,melting point,,106 to 109 °C
